# Data taken from EP2608671B1, “COMPOUNDS FOR TREATMENT OF CANCER” (Gtx, Inc., priority 2010, dated 2012).
# Read-outs that look alike come from different tables or passages of the source.
# Experiments:
# PPC-1 [1] = assay: cells; conditions: Homo sapiens, PPC-1, 96 h, read-out: IC50 ± SEM (nM), PPC-1
# A375 = assay: SRB cell growth inhibition (cytotoxicity) assay; type: cell-based, human
# [2] = tested on: prostate cancer cell lines (LNCaP, DU 145, PC-3, PPC-1); assay: SRB cytotoxicity, prostate cancer cell panel (text summaries); type: cell-based; conditions: Homo sapiens, read-out: IC50 against prostate cancer cells
# Text: (§1) The only compounds which belong to the invention are the ones falling under the scope of formula (XI).
# B16-F1 = assay: SRB cell growth inhibition (cytotoxicity) assay; type: cell-based, mouse
# Text: as §1
# DU 145 [3] = assay: cells; conditions: Homo sapiens, DU-145, 96 h
# PC-3 = assay: cells
# Text: as §1
# Cells were stained with SRB solution.
# Cells. […] Cells between the third and fifth passages were used for experiments.
# Cell growth inhibition studies. […] Cells were stained with sulphorhodamine B (SRB) solution.
# LNCaP [4] = assay: cells; conditions: Homo sapiens, 96 h, read-out: IC50 ± SEM (nM), LNCaP
# NCI/ADR-RES = assay: SRB growth inhibition, P-gp over-expressing MDR line; type: cell-based, human; conditions: for Resistance factor: NCI/ADR-RES vs OVCAR-8, 5760 min; for IC50: Homo sapiens, NCI/ADR-RES, P-gp over-expressed MDR cell line, Table 5A, read-out: IC50 (nM), NCI/ADR-RES
# WM-164 = assay: SRB cell growth inhibition (cytotoxicity) assay; type: cell-based, human; conditions: Homo sapiens, WM164; SRB assay, 96 h; Table 2; read-out: IC50 ± SEM (nM), WM-164
# OVCAR-8 = assay: SRB growth inhibition, MDR model parent line; type: cell-based, human
# Bovine brain tubulin = assay: In vitro tubulin polymerization assay; type: biochemical; conditions: 10 µM; for tubulin polymerization inhibited: 20 min incubation, compared to vehicle
# Text: (§2) In Vitro Tubulin Polymerization Assay.
# as §2
# In vitro microtubule polymerization assay.
# [5] = tested on: melanoma cell lines (A375, WM-164, B16-F1) and prostate cancer cell lines (LNCaP, DU 145, PC-3, PPC-1); assay: SRB cytotoxicity, melanoma and prostate cell panel (averages); type: cell-based; conditions: Prostate cell; summary of Tables 2, 3, 21; read-out: IC50 range over tested melanoma and prostate cell lines
# Text: as §1
# [6] = tested on: PC-3 prostate tumor xenograft; assay: In vivo antitumor efficacy, PC-3 xenograft; parameters: species or system mouse; conditions: for % T/C: Prostate (PC-3) xenograft, 21 days
# Text: (§3) PC-3 and A375 tumor xenograft studies.
# (§4) In vivo antitumor activity [tumor growth inhibition (% T/C), tumor growth delay (T-C value), and tumor cell kill (total log cell kill)].
# PPC-1 [7] = conditions: read-out: IC50 ±SEM (nM), PPC-1; Table 6
# DU 145 [8] = conditions: read-out: IC50 ±SEM (nM), DU 145; Table 6
# LNCaP [9] = tested on: LNCaP
# [10] = tested on: A375 human melanoma xenograft; assay: In vivo antitumor efficacy, A375 melanoma xenograft; parameters: species or system mouse; conditions: Melanoma (A375) xenograft, 15 mg/kg i.p.
# Description: DTIC at 60 mg/kg was used as a positive control again.
# as §3, §4
# [11] = Homo sapiens, A-375, 96 h, read-out: IC50 ± SEM (nM), A375
# [12] = Mus musculus, B16-F1, read-out: IC50 ± SEM (nM), B16-F1
# [13] = read-out: IC50 ± SEM (nM), DU 145
# [14] = Homo sapiens, PC-3, 96 h, read-out: IC50 ± SEM (nM), PC-3
# [15] = summary over LNCaP, PC-3, DU-145, PPC-1
# [16] = Homo sapiens, OVCAR-8, Table 5A, read-out: IC50 (nM), OVCAR-8
# [17] = Table 6, read-out: IC50 ±SEM (nM), A375
# [18] = Table 6, read-out: IC50 ±SEM (nM), B16-F1
# [19] = read-out: IC50 ±SEM (nM), PC-3, Table 6
# [20] = read-out: IC50 ±SEM (nM), LNCaP, Table 6
structure (smiles),measurement,setting,value
"COc1cc(C(=O)c2cc(-c3ccccc3)ncn2)cc(OC)c1OC [1b, (6-Phenylpyrimidin-4-yl)(3,4,5-trimethoxyphenyl)methanone]",IC50,PPC-1 [1],3700 nM
same,IC50,A375; [11],> 30000 nM
same,IC50,[2]; summary of Table 1,3.7 to 8.3 µM
same,IC50,B16-F1; [12],> 30000 nM
same,IC50,DU 145 [3]; [13],6900 nM
same,IC50,PC-3; [14],8300 nM
same,IC50,LNCaP [4],7000 nM
"COc1cc(C(=O)c2cccc(-c3ccccc3)n2)cc(OC)c1OC [1c, (6-Phenylpyridin-2-yl)(3,4,5-trimethoxyphenyl)methanone]",IC50,[2]; [15],0.012 to 0.035 µM
same,Resistance factor,NCI/ADR-RES,0.4
"COc1cc(C(=O)c2ccc(-c3ccccc3)o2)cc(OC)c1OC [1d, (5-Phenylfuran-2-yl)(3,4,5-trimethoxyphenyl)methanone]",IC50,PPC-1 [1],20 nM
same,IC50,A375; [11],27 ± 8 nM
same,IC50,[2]; [15],0.012 to 0.035 µM
same,IC50,B16-F1; [12],151 ± 24 nM
same,IC50,DU 145 [3]; [13],35 nM
same,IC50,PC-3; [14],21 nM
same,IC50,LNCaP [4],23 nM
"COc1cc(C(=O)c2cnc(-c3ccccc3)s2)cc(OC)c1OC [1e, (2-Phenylthiazol-5-yl)(3,4,5-trimethoxyphenyl)methanone]",IC50,PPC-1 [1],> 10000 nM
same,IC50,A375; [11],13600 ± 3800 nM
same,IC50,[2]; summary of Table 1,> 10 µM
same,IC50,B16-F1; [12],12500 ± 5200 nM
same,IC50,DU 145 [3]; [13],> 10000 nM
same,IC50,PC-3; [14],> 10000 nM
same,IC50,LNCaP [4],> 10000 nM
"COc1cc(C(=O)N2CCC(c3ccccc3)CC2)cc(OC)c1OC [1g, (4-Phenylpiperidin-1-yl)(3,4,5-trimethoxyphenyl)methanone]",IC50,PPC-1 [1],> 20000 nM
same,IC50,A375; [11],> 30000 nM
same,IC50,[2]; summary of Table 1,> 20 µM
same,IC50,B16-F1; [12],> 30000 nM
same,IC50,DU 145 [3]; [13],> 20000 nM
same,IC50,PC-3; [14],> 20000 nM
same,IC50,LNCaP [4],> 20000 nM
"COc1cc(C(=O)c2cc(-c3ccccc3)on2)cc(OC)c1OC [1i, (5-Phenylisoxazol-3-yl)(3,4,5-trimethoxyphenyl)methanone]",IC50,PPC-1 [1],> 10000 nM
same,IC50,A375; [11],> 30000 nM
same,IC50,[2]; summary of Table 1,> 10 µM
same,IC50,B16-F1; [12],> 30000 nM
same,IC50,DU 145 [3]; [13],> 10000 nM
same,IC50,PC-3; [14],> 10000 nM
same,IC50,LNCaP [4],> 10000 nM
"COc1cc(C(=NC#N)c2csc(-c3ccccc3)n2)cc(OC)c1OC [2j, N-((2-phenylthiazol-4-yl)(3,4,5-trimethoxyphenyl)methylene)cyanamide]",IC50,PPC-1 [1],20 ± 1 nM
same,IC50,A375; [11],28 ± 12 nM
same,IC50,B16-F1; [12],60 ± 21 nM
same,IC50,WM-164,27 ± 13 nM
same,IC50,NCI/ADR-RES,14 ± 1 nM
same,Resistance factor,NCI/ADR-RES,0.4
same,IC50,OVCAR-8; [16],34 ± 2 nM
same,IC50,DU 145 [3]; [13],42 ± 2 nM
same,tubulin polymerization inhibited,Bovine brain tubulin,64%
same,IC50,[5],20 to 60 nM
same,IC50,PC-3; [14],27 ± 1 nM
same,IC50,LNCaP [4],23 ± 2 nM
"COc1cc(C(=O)c2csc(-c3ccc(O)cc3)n2)cc(OC)c1OC [2l, (2-(4-Hydroxyphenyl)thiazol-4-yl)(3,4,5-trimethoxyphenyl)methanone]",IC50,PPC-1 [1],76 nM
same,IC50,A375; [11],100 nM
same,IC50,B16-F1; [12],110 nM
same,Tumor volume at day 21,"[6]; PC-3, 50 mg/kg i.p., control 680 mm^3",331 mm^3
same,IC50,DU 145 [3]; [13],116 nM
same,inhibited tubulin polymerization,"Bovine brain tubulin; 15 min, Figure 28B",55%
same,IC50,[5],76 to 116 nM
same,IC50,PC-3; [14],87 nM
same,IC50,LNCaP [4],103 nM
COc1cc(C(=O)c2csc(-c3ccc(C)cc3)n2)cc(OC)c1OC [2m],IC50,A375; [17],11 nM
same,IC50,B16-F1; [18],21 nM
same,IC50,PPC-1 [7],6.2 nM
same,IC50,PC-3; [19],8.7 nM
same,IC50,DU 145 [8],6.9 nM
COc1cc(C(=O)c2csc(-c3cc(F)c(F)c(F)c3)n2)cc(OC)c1OC [2p],IC50,A375; [17],2200 nM
same,IC50,B16-F1; [18],16600 nM
same,IC50,LNCaP [9]; [20],> 10000 nM
same,IC50,PPC-1 [7],1080 nM
same,IC50,PC-3; [19],2380 nM
same,IC50,DU 145 [8],1900 nM
COc1cc(C(=O)c2csc(-c3ccc(CC(N)=O)cc3)n2)cc(OC)c1OC [2q],IC50,A375; [17],> 20000 nM
same,IC50,B16-F1; [18],> 20000 nM
same,IC50,LNCaP [9]; [20],> 10000 nM
same,IC50,PPC-1 [7],> 10000 nM
same,IC50,PC-3; [19],> 10000 nM
same,IC50,DU 145 [8],> 10000 nM
"COc1cc(C(=O)c2csc(Nc3ccccc3)n2)cc(OC)c1OC [5a, (2-(Phenylamino)thiazol-4-yl)(3,4,5-trimethoxyphenyl)methanone]",IC50,PPC-1 [1],54 ± 1 nM
same,IC50,A375; [11],45 ± 8 nM
same,IC50,B16-F1; [12],65 ± 12 nM
same,IC50,NCI/ADR-RES,27 nM
same,Resistance factor,NCI/ADR-RES,0.6
same,IC50,OVCAR-8; [16],46 ± 6 nM
same,IC50,DU 145 [3]; [13],70 ± 4 nM
same,tubulin polymerization inhibited,Bovine brain tubulin,78%
same,IC50,PC-3; [14],57 ± 3 nM
same,IC50,LNCaP [4],51 ± 1 nM
"Cc1ccc(-c2nc(C(=O)c3ccc(F)cc3)c[nH]2)cc1 [12db, (4-fluorophenyl)(2-(p-tolyl)-1H-imidazol-4-yl)methanone]",IC50,PPC-1 [1],34 ± 1 nM
same,IC50,"A375; Homo sapiens, A-375, A375 melanoma cells, 48 h, SRB, read-out: IC50 ± SEM (nM) A375",143 ± 13 nM
same,IC50,DU 145 [3]; read-out: IC50 ± SEM (nM) Du 145,78 ± 5 nM
same,inhibition of tubulin polymerization,"Bovine brain tubulin; 15 min, Figure 22",~80%
same,IC50,PC-3; [14],56 ± 3 nM
same,IC50,LNCaP [4],45 ± 2 nM
COc1cc(C(=O)c2csc(-c3ccc4[nH]ccc4c3)n2)cc(OC)c1OC [66a],IC50,PPC-1 [1],8 nM
same,IC50,A375; [11],8 ± 1 nM
same,IC50,B16-F1; [12],25 ± 13 nM
same,IC50,NCI/ADR-RES,4 ± 2 nM
same,Resistance factor,NCI/ADR-RES,0.4
same,IC50,OVCAR-8; [16],10 ± 3 nM
same,IC50,DU 145 [3]; [13],13 nM
same,tubulin polymerization inhibited,Bovine brain tubulin,81%
same,IC50,[5],7 to 25 nM
same,IC50,PC-3; [14],7 nM
same,IC50,LNCaP [4],10 nM
COc1cc(C(=O)c2csc(-c3ccc(F)cc3)n2)cc(OC)c1OC [SMART-F],IC50,"A375; Table 21, Melanoma, n = 3, read-out: IC50 ± SEM (nM) A375",33 ± 14 nM
same,IC50,"B16-F1; Table 21, Melanoma, n = 3, read-out: IC50 ± SEM (nM) B16-F1",43 ± 21 nM
same,IC50,"LNCaP [9]; read-out: IC50 ± SEM (nM) LNCaP, Table 21, Prostate, n = 3",6 ± 1 nM
same,% T/C,[6]; 5 mg/kg i.p.,21%
same,% T/C,[6]; 15 mg/kg i.p.,24%
same,IC50,"OVCAR-8; Table 21, Ovarian, n = 3, read-out: IC50 ± SEM (nM) OVCAR-8",34 ± 3 nM
same,Median time to reach 600 mm^3.,[10],29 days
same,% T/C,[10]; 34 days,28%
same,Total log cell kill,[10]; doubling time 4.6 d,0.7
same,IC50,"PC-3; read-out: IC50 ± SEM (nM) PC-3, Table 21, Prostate, n = 3",13 ± 1 nM
COc1cc(C(=O)c2csc(-c3ccccc3)n2)cc(OC)c1OCCN1C(=O)c2ccccc2C1=O [compound 20],IC50,A375; [17],38 nM
same,IC50,B16-F1; [18],42 nM
same,IC50,LNCaP [9]; [20],65 nM
same,IC50,PPC-1 [7],73 nM
same,IC50,PC-3; [19],73 nM
same,IC50,DU 145 [8],121 nM
